{"source": "paper PMC9679038", "about": "“Hemoglobin is an oxygen-dependent glutathione buffer adapting the intracellular reduced glutathione levels to oxygen availability” (Redox Biology, 2022)", "biological_target": "T1, Hemoglobin (Hb; oxy-Hb, also deoxy-Hb) (Homo sapiens, UniProt P68871+P69905)", "T1 construct": "gene HBB", "T1 sequence (P68871 2-147)": "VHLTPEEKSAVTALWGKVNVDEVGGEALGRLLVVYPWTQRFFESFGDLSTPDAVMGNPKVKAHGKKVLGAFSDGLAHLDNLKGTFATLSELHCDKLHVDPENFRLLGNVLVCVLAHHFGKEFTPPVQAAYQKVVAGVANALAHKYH", "T1 sequence (P69905 2-142)": "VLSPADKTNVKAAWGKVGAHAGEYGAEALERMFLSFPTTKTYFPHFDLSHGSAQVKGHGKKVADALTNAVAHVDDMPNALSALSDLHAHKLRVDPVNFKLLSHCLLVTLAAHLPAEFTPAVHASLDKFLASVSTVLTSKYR", "data": [{"compound": "N[C@@H](CCC(=O)N[C@@H](CS)C(=O)NCC(=O)O)C(=O)O", "note": "[GSH, reduced glutathione]", "values": [{"measurement": "Kd", "result": 2, "unit": "µM"}]}]}
